Experimental data reported in PubChem BioAssay AID2060907 (Molecular Pharmacology Branch, DTP, NCI, 2025).

Tested on: 388556-164-R-J1-PDC complex spheroid viability
Assay: Anticancer human tumor 388556-164-R-J1-PDC patient-derived colon adenocarcinoma cell line growth inhibition [RAS]
Settings: for IC50: curve of first compound; for viability, T/C: stronger effect = lower value
Summary of the method: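 Tumour cells grown as complex spheroids with HUVEC endothelial cells and mesenchymal stem cells, treated with RAS pathway inhibitor combinations. Each agent spans half-log steps from near clinical Cmax, or 10 microM where Cmax is unknown.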

[1] = second compound 0.0316 µM, first compound 0.0316 µM
[2] = second compound 0.0316 µM, first compound 0.1 µM
[3] = second compound 0.0316 µM, first compound 0.316 µM
[4] = second compound 0.0316 µM, first compound 1 µM
[5] = second compound 0.0316 µM, first compound 3.16 µM
[6] = second compound 0.0316 µM, first compound 10 µM
[7] = second compound 0.1 µM, first compound 0.0316 µM
[8] = second compound 0.1 µM, first compound 0.1 µM
[9] = second compound 0.1 µM, first compound 0.316 µM
[10] = second compound 0.1 µM, first compound 1 µM
[11] = second compound 0.1 µM, first compound 3.16 µM
[12] = second compound 0.1 µM, first compound 10 µM
[13] = second compound 0.316 µM, first compound 0.0316 µM
[14] = second compound 0.316 µM, first compound 0.1 µM
[15] = second compound 0.316 µM, first compound 0.316 µM
[16] = second compound 0.316 µM, first compound 1 µM
[17] = second compound 0.316 µM, first compound 3.16 µM
[18] = second compound 0.316 µM, first compound 10 µM
[19] = second compound 1 µM, first compound 0.0316 µM
[20] = second compound 1 µM, first compound 0.1 µM
[21] = second compound 1 µM, first compound 0.316 µM
[22] = second compound 1 µM, first compound 1 µM
[23] = second compound 1 µM, first compound 3.16 µM
[24] = second compound 1 µM, first compound 10 µM
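Further: spheroids exposed to compound for 7 days before readout.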
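Wherever viability, T/C is given: 100% = DMSO vehicle control luminescence.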

With `CC(Nc1ccc2c(c1)OCCn1cc(N3C(=O)OCC3C(F)F)nc1-2)C(N)=O` (centres undefined) + C#Cc1c(F)ccc2cc(O)cc(-c3ncc4c(N5CC6CCC(C5)N6)nc(OCC56CCCN5CC(F)C6)nc4c3F)c12 the IC50 (second compound 0.0316 µM) was greater than 10000 nM, the IC50 (second compound 0.1 µM) was greater than 10000 nM and the IC50 (second compound 0.316 µM) was greater than 10000 nM. For the same compound, the IC50 (second compound 1 µM) was 8110 nM, the IC50 (second compound 3.16 µM) was 2960 nM and the IC50 (second compound 10 µM) was 1040 nM. For the same compound, the viability, T/C [1] was 94.9%, the viability, T/C [2] was 95.5% and the viability, T/C [3] was 94%. The viability, T/C [4] was 78.8%, the viability, T/C [5] was 76.6% and the viability, T/C [6] was 66.6%. The viability, T/C [7] was 93.6%, the viability, T/C [8] was 90.7% and the viability, T/C [9] was 83.3%. The viability, T/C [10] was 81%, the viability, T/C [11] was 77% and the viability, T/C [12] was 62.3%. For the same compound, the viability, T/C [13] was 94.8%, the viability, T/C [14] was 84.3% and the viability, T/C [15] was 74.2%. For the same compound, the viability, T/C [16] was 69.9%, the viability, T/C [17] was 72% and the viability, T/C [18] was 51.9%. It also gave a viability, T/C [19] of 82.1%, a viability, T/C [20] of 89.9% and a viability, T/C [21] of 58.1%. The viability, T/C [22] was 69.4%, the viability, T/C [23] was 69.2% and the viability, T/C [24] was 43.6%. For the same compound, the viability, T/C (second compound 3.16 µM, first compound 0.0316 µM) was 82.4%, the viability, T/C (second compound 3.16 µM, first compound 0.1 µM) was 63.2% and the viability, T/C (second compound 3.16 µM, first compound 0.316 µM) was 64.2%. The viability, T/C (second compound 3.16 µM, first compound 1 µM) was 59.5%, the viability, T/C (second compound 3.16 µM, first compound 3.16 µM) was 53.3% and the viability, T/C (second compound 3.16 µM, first compound 10 µM) was 38.4%. The viability, T/C (second compound 10 µM, first compound 0.0316 µM) was 59.4%, the viability, T/C (second compound 10 µM, first compound 0.1 µM) was 57.2% and the viability, T/C (second compound 10 µM, first compound 0.316 µM) was 55.1%. It also gave a viability, T/C (second compound 10 µM, first compound 1 µM) of 50.8%, a viability, T/C (second compound 10 µM, first compound 3.16 µM) of 29.5% and a viability, T/C (second compound 10 µM, first compound 10 µM) of 31.1%.

Work on `CCC(CC)c1cc(NC2CCC(N)C2)n2nccc2n1` (centres undefined) + C=CC(=O)N1CCN(c2nc(OCC3CCCN3C)nc3c(F)c(-c4nc(N)cc(C)c4C(F)(F)F)c(Cl)cc23)C(C)C1 yielded an IC50 (second compound 0.00316 µM) of 2730 nM, an IC50 (second compound 0.01 µM) of 2700 nM and an IC50 (second compound 0.0316 µM) of 2770 nM. The IC50 (second compound 0.1 µM) was 2470 nM, the IC50 (second compound 0.316 µM) was 2460 nM and the IC50 (second compound 1 µM) was 2340 nM. It also gave a viability, T/C (second compound 0.00316 µM, first compound 0.0316 µM) of 98.2%, a viability, T/C (second compound 0.00316 µM, first compound 0.1 µM) of 98.6% and a viability, T/C (second compound 0.00316 µM, first compound 0.316 µM) of 106%. For the same compound, the viability, T/C (second compound 0.00316 µM, first compound 1 µM) was 93.9%, the viability, T/C (second compound 0.00316 µM, first compound 3.16 µM) was 43.6% and the viability, T/C (second compound 0.00316 µM, first compound 10 µM) was 29.6%. The viability, T/C (second compound 0.01 µM, first compound 0.0316 µM) was 97.2%, the viability, T/C (second compound 0.01 µM, first compound 0.1 µM) was 109% and the viability, T/C (second compound 0.01 µM, first compound 0.316 µM) was 102%. It also gave a viability, T/C (second compound 0.01 µM, first compound 1 µM) of 96%, a viability, T/C (second compound 0.01 µM, first compound 3.16 µM) of 42.6% and a viability, T/C (second compound 0.01 µM, first compound 10 µM) of 27.8%. The viability, T/C [1] was 96%, the viability, T/C [2] was 104% and the viability, T/C [3] was 106%. It also gave a viability, T/C [4] of 101%, a viability, T/C [5] of 43.3% and a viability, T/C [6] of 29.9%. The viability, T/C [7] was 97.5%, the viability, T/C [8] was 95.9% and the viability, T/C [9] was 102%. It also gave a viability, T/C [10] of 98.2%, a viability, T/C [11] of 36.8% and a viability, T/C [12] of 26.5%. For the same compound, the viability, T/C [13] was 104%, the viability, T/C [14] was 112% and the viability, T/C [15] was 109%. The viability, T/C [16] was 105%, the viability, T/C [17] was 34.6% and the viability, T/C [18] was 28.5%. The viability, T/C [19] was 98.6%, the viability, T/C [20] was 100% and the viability, T/C [21] was 109%. It also gave a viability, T/C [22] of 111%, a viability, T/C [23] of 30.7% and a viability, T/C [24] of 27.6%.
